# Structures can show the parent of a compound that is named as a salt. Marks after values point to notes of the source that are not given here.
# How the values were obtained:
# [1] = system: HOXA9/DNA binding (HBS, HOXA9-binding site); parameters: species or system human; settings: ELISA-derived assay and EMSA, Figure 1; SAR discussion
# [2] = system: HOXA9 binding site 5′-ATTTA; assay: DNase I footprinting
# K562 cells = assay: Colony-forming assay K562; assay type: cell-based, human; settings: 2.5μM, 10 days, 1000 cells/well, mean +/− s.e.m
# MigA9 cells [3] = settings: 2.5μM, 10 days; for MigA9 Number of colonies, Total: 1000 cells/well
# HMG-box protein = HMG-box protein DNA binding; settings: specificity control
# [4] = system: HOXA9-mediated transactivation; assay: HOXA9-driven luciferase assay; assay type: cell-based, human; settings: K562 transfected with pCMV-AD-HOXA9 and wild-type HBS reporter, 20μM, 48H
# [5] = system: Itgam, Oasl2, Akap13, Arfgef1 expression in MigA9 cells; assay: qRT-PCR of differentiation-associated genes; assay type: cell-based, murine; settings: MigA9, 5 or 10μM, 48 hours
# MigA9 cells [6] = assay: Cell cycle and sub-G1 analysis; assay type: cell-based, murine
# MigA9 and/or HT-29 cells = assay: Cellular distribution by fluorescence microscopy; assay type: cell-based; settings: intrinsic fluorescence; MigA9 20 μM 2h and/or HT-29 5μM 16H
# HBS DNA sequence = assay: Circular dichroism on HBS oligonucleotide; assay type: binding; settings: 300-400 nm, increasing drug/DNA ratio
# HOXA9/HBS complex = assay type: binding, human; settings: from EMSA quantification
compound,measurement,setting,value
N=C(N)c1ccc(-c2ccc(-c3ccc(C(=N)N)cc3)s2)cc1 [DB351],HOXA9/DNA binding inhibition (in words),[1],inactive
N=C(Nc1ccc(-c2ccc(-c3ccc(NC(=N)c4ccccn4)cc3)[nH]2)cc1)c1ccccn1 [DB883],recognition of 5′-ATTTA site in DNase I footprinting,[2],failed to recognize
"N=C(N)c1ccc(-c2ccc(-c3cc4ccc(C(=N)N)cc4[nH]3)s2)nc1 [DB2529, 2-(5-(5-Carbamimidoylpyridin-2-yl)thiophen-2-yl)-1H-indole-6-carboximidamide trihydrochloride]",recognition of 5′-ATTTA site in DNase I footprinting,[2],protected site was clearly evidenced
N=C(N)c1ccc(-c2ccc(-c3nc4ccc(C(=N)N)cc4[nH]3)s2)cc1 [DB818],"K562 Number of colonies, Total",K562 cells,448 +/− 17
same,"MigA9 Number of colonies, Total",MigA9 cells [3],101
same,"MigA9 colonies, BFU-E (%)",MigA9 cells [3]; share of total colonies,3 (3%)
same,"MigA9 colonies, Total (%)",MigA9 cells [3]; share of total colonies,100%
same,inhibition of DNA binding of the HMG-box protein,HMG-box protein,failed to inhibit
same,inhibition of HOXA9-mediated transactivation (luciferase),[4],able to inhibit
same,recognition of 5′-ATTTA site in DNase I footprinting,[2],protected site was clearly evidenced
same,"over-expression of Itgam, Oasl2, Akap13 and Arfgef1",[5],over-expression
N=C(N)c1ccc(-c2ccc(-c3cc4ccc(C(=N)N)cc4[nH]3)o2)cc1 [DB1878],recognition of 5′-ATTTA site in DNase I footprinting,[2],much weaker binding activity
same,% SubG1 48H,"MigA9 cells [6]; MigA9, 10 μM",15.94 +/− 1.80 ^$ %
same,% SubG1 48H,"MigA9 cells [6]; MigA9, 15 μM",27.88 +/− 16.14 * %
N=C(N)c1cccc(-c2ccc(-c3nc4cc(C(=N)N)ccc4[nH]3)cc2)c1 [DB1055],"K562 Number of colonies, Total",K562 cells,467 +/− 12
same,"MigA9 Number of colonies, BFU-E",MigA9 cells [3],2
same,"MigA9 Number of colonies, CFU-G",MigA9 cells [3],58
same,"MigA9 Number of colonies, CFU-M",MigA9 cells [3],55
same,"MigA9 Number of colonies, Total",MigA9 cells [3],115
same,"MigA9 colonies, CFU-GM (%)",MigA9 cells [3]; share of total colonies,0 (0%)
same,"MigA9 colonies, Total (%)",MigA9 cells [3]; share of total colonies,100%
same,inhibition of DNA binding of the HMG-box protein,HMG-box protein,failed to inhibit
same,inhibition of HOXA9-mediated transactivation (luciferase),[4],able to inhibit
same,recognition of 5′-ATTTA site in DNase I footprinting,[2],protected site was clearly evidenced
same,% SubG1 48H,"MigA9 cells [6]; MigA9, 15 μM",1.27 +/− 0.20%
N=C(N)c1ccc(-c2ccc(-c3nc4cc(C(=N)N)ccc4o3)o2)cc1 [DB828],"MigA9 Number of colonies, BFU-E",MigA9 cells [3],2
same,"MigA9 Number of colonies, CFU-GM",MigA9 cells [3],90
same,"MigA9 Number of colonies, CFU-M",MigA9 cells [3],16
same,"MigA9 Number of colonies, Total",MigA9 cells [3],170
same,"MigA9 colonies, Total (%)",MigA9 cells [3]; share of total colonies,100%
same,inhibition of HOXA9-mediated transactivation (luciferase),[4],failed
same,recognition of 5′-ATTTA site in DNase I footprinting,[2],failed to recognize
same,entry into cells and localization in the nucleus,MigA9 and/or HT-29 cells,localized to the nucleus
same,"over-expression of Itgam, Oasl2, Akap13 and Arfgef1",[5],failed to achieve the similar results
same,induced CD signal,HBS DNA sequence,only weak CD changes
N=C(N)c1ccc(-c2cccc(-c3nc4ccc(C(=N)N)cc4[nH]3)c2)cc1 [DB911],entry into cells and localization in the nucleus,MigA9 and/or HT-29 cells,could not be detected
"N=C(N)c1ccc(-c2ccc(-c3cc4ccc(C(=N)N)cc4[nH]3)s2)cc1 [DB1879, 2-(5-(4-Carbamimidoylphenyl)thiophen-2-yl)-1H-indole-6-carboximidamide diydrochloride]",recognition of 5′-ATTTA site in DNase I footprinting,[2],protected site was clearly evidenced
N=C(N)c1ccc(-c2ccc(-c3ccc4ccc(C(=N)N)cc4c3)cc2)cc1 [DB1177],sub-group for HOXA9/DNA binding inhibition,HOXA9/HBS complex,Medium
same,recognition of 5′-ATTTA site in DNase I footprinting,[2],much weaker binding activity

# Source: paper PMC6561105 (Journal of medicinal chemistry, 2019)
